Assay results taken from patent US20250189532A1, “1,6-DIYNE COMPOUND, ITS PREPARATION METHOD, AND PRODUCTS OBTAINED USING 1,6-DIYNE COMPOUND AS RAW MATERIAL AND THEIR APPLICATIONS” (Fujian Institute of Research on the Structure of Matter, …, priority 2022, published 2025).

Tests used:
Assay type in all cases: cell-based
[1] = test system: L929 cells (mouse fibroblasts); experiment: Fluorescent labeling of L292/L929 cells by IM probes (confocal imaging); details: 30 minutes in the dark
Procedure: Cell line: L929 cells (mouse fibroblasts).
Cell culture: Cells are cultured in a CO2 incubator (37° C., 5% CO2) with DMEM medium (penicillin (100 U/mL) and streptomycin (100 μg/mL)).
(§1) Cell imaging experiment: Cells are cultured on 15 mm grade bottom cell culture dishes. Before labeling the cells with the probe, the culture medium is removed, and the cells are washed twice with Hank's buffer solution to remove the remaining culture medium. Then, 200 μL of probe IM-1 (10 μM) is added to the culture dish, and the cells are incubated in the dark for 30 minutes. The cells are washed twice with Hank's buffer solution to remove any remaining probe, and then 1 mL of Hank's solution is added to the culture dish. The cells are observed under a laser confocal microscope with a 100× objective. The excitation wavelength is 543 nm, and the emission wavelength is 550-600 nm.
as §1, with “IM-2 (5” for “IM-1 (10”
as §1, with “IM-3 (2” for “IM-1 (10”, “The cells are observed under a laser confocal microscope with a 100× objective. The excitation wavelength is 543 nm, and the emission wavelength is 550-600 nm.” left out

respiratory chain [2] = experiment: Cell silencing experiment 2: cytc-436 siRNA, live cell imaging with MP-1
Procedure: The cells are cultured in the imaging culture dish for 6 h, and then treated with cytc-436 (designed silent siRNA) or non-targeting RNA for a certain period of time, and then live cell imaging is performed under a confocal laser scanning microscope. After 6 hours of ctyc-436 treatment, Hoechst 33342 and MTG staining are good, but about 5% of the cells could not be labeled by MP-1. In contrast, the staining effect of MP-1 in the control group using non-targeting RNA is still good.

respiratory chain [3] = experiment: Cell silencing experiment 1: cytc-290 siRNA, live cell imaging with MP-1
Procedure: Cells are cultured in imaging culture dishes for 6 h and then treated with cytc-290 (designed silent siRNA) or nontargeting RNA. After a certain period of action, live cell imaging is performed under a confocal laser scanning microscope. After 12 hours of ctyc-290 treatment, Hoechst 33342 and MTG staining are good, but about 10% of the cells could not be labeled by MP-1. About 30% of the cells could not be labeled by MP-1 after 18 hours of treatment with ctyc-290. As shown in FIGS. 8A-8E, in contrast, the staining effect of MP-1 in the control group using non-targeted RNA is still good.

[4] = after 6 hours of cytc-436 treatment
[5] = after 12 hours of cytc-290 treatment

c1ccc(C2=NCc3cc4ccccc4cc32)cc1 [IM-1]
organelles fluorescently labelled by the probe ([1]; probe 10 μM, excitation 543 nm, emission 550-600 nm): labels the lysosomes and lysosomal autolysosomes in the cells

CCCCCCCCCCCCCOc1ccc(C2=NCc3c2cc2ccc(Cl)cc2c3-c2ccccc2)cc1 [IM-2]
organelles fluorescently labelled by the probe ([1]; probe 5 μM, excitation 543 nm, emission 550-600 nm): labels the lysosomes and lysosomal autolysosomes in the cells

C#CCN(C(C#Cc1ccccc1)c1ccccc1)S(=O)(=O)c1ccccc1 (stereo not shown) [PA-1]
cells that could not be labeled by MP-1 (respiratory chain [2]; [4]): about 5% | staining effect in control group (respiratory chain [2]; control group using non-targeting RNA): still good | cells that could not be labeled by MP-1 (respiratory chain [3]; [5]): about 10% | cells that could not be labeled by MP-1 (respiratory chain [3]; after 18 hours of cytc-290 treatment): About 30% | staining effect in control group (respiratory chain [3]; control group using non-targeted RNA): still good

CCOc1ccc(-c2nc3ccc(-c4nc5ccc(N6CCN(C)CC6)cc5[nH]4)cc3[nH]2)cc1 [Hoechst 33342, reference compound]
staining (respiratory chain [2]; [4]): good | staining (respiratory chain [3]; [5]): good

CCCCCCCCCCCCCOc1ccc(C2=NCc3c2cc2ccc(Cl)cc2c3-c2ccccc2)cc1 [IM-3]
organelles fluorescently labelled by the probe ([1]; probe 2 μM, excitation 488 nm, emission 600-650 nm): labels the lysosomes and lysosomal autolysosomes in the cells
